Our source for the IC50 values is patent publication US8273773B2 (priority 2008, dated 2012).
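Further: recombinant His-tagged enzyme from E. coli, radiolabeled nucleotide incorporation into acid-insoluble RNA read by scintillation after filtration, no-enzyme background subtracted, activity relative to positive control.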

The target of the first assay is T1, HCV polymerase (NS5B570n-Con1) (Hepatitis C virus genotype 1b, UniProt Q9WMX2).
T1 construct: contains a 21 amino acid deletion at the C-terminus relative to the full-length HCV polymerase; 6-histidine (N); made in house; host or cells: E. coli strain BL21(DE) pLysS (pET17b)
The experiment in a line: biochemical. Further details: species or system HCV Con1 strain. The conditions noted are these: IC50 HCV NS5B RNA Polymerase Assay (values with asterisk), values with asterisk: cIRES RNA template, 3 nM NS5B570n-Con1.
For orientation: IC50 means the concentration needed to halve the response being measured. `Cc1cc(-c2ccc[nH]c2=O)cc(C2(C)CCCC2)c1` [I-27] returned an IC50 of 5380 nM.

Staying with this assay, now noted: IC50 HCV NS5B RNA Polymerase Assay, values without asterisk; 20 nM NS5B570n-Con1 enzyme, 20 nM cIRES RNA template.
On to `Cc1cc(-c2ccc(CO)[nH]c2=O)cc(C(C)(C)C)c1` [I-12], for which the IC50 was 892 nM.

With `COc1c(C(=O)N2CCCC(CO)C2)cc(-c2ccc[nH]c2=O)cc1C(C)(C)C` (centres unmarked) [I-24], the IC50 amounted to 1530 nM.

`Cc1cc(-c2ccc[nH]c2=O)cc(C2(C)CCC2)c1` [I-28]: the IC50 came out at 1460 nM.

With `COCCN(C(=O)c1cc(-c2ccc[nH]c2=O)cc(C(C)(C)C)c1OC)C1CC1` [I-31], half-maximal inhibition (IC50) required 2290 nM.

`COc1c(C(=O)NCCc2ccccc2)cc(-c2ccc[nH]c2=O)cc1C(C)(C)C` [I-34] gave a half-maximal inhibitory concentration (IC50) of 1700 nM.

As to `COc1c(C(=O)NCC(C)c2ccccc2)cc(-c2ccc[nH]c2=O)cc1C(C)(C)C` (centres unmarked) [I-35], half-maximal inhibition (IC50) required 1230 nM.

Consider `COc1c(C(=O)NCc2ccccc2)cc(-c2ccc[nH]c2=O)cc1C(C)(C)C` [I-37], for which the midpoint of inhibition, the IC50, lay at 1010 nM.

As to `COc1c(C(=O)NCc2ccncc2)cc(-c2ccc[nH]c2=O)cc1C(C)(C)C` [I-38], the IC50 amounted to 932 nM.

The compound `COc1c(C(=O)NCc2cncn2C)cc(-c2ccc[nH]c2=O)cc1C(C)(C)C` [I-39] came in with an IC50 of 1340 nM.

With `COc1c(C(=O)NCc2ccc(N(C)C)cc2)cc(-c2ccc[nH]c2=O)cc1C(C)(C)C` [I-40], it took 1600 nM to reach half-maximal inhibition (IC50).

The compound `COc1c(C(=O)Nc2ccc(N(C)C)cc2)cc(-c2ccc[nH]c2=O)cc1C(C)(C)C` [I-41] showed an IC50 of 1510 nM.

With `COc1c(C(=O)NCCN(C)C)cc(-c2ccc[nH]c2=O)cc1C(C)(C)C` [I-43], the IC50 is 1750 nM.

As to `COc1c(C(=O)NCCCN2CCCC2=O)cc(-c2ccc[nH]c2=O)cc1C(C)(C)C` [I-44], the IC50 came to 1200 nM.

The compound `CC(C)(C)c1cc(-c2ccc[nH]c2=O)cc(NC(=O)c2ccccc2)c1F` [I-60] returned an IC50 of 1090 nM.

Consider `COc1c(C(=O)NC2CCCN(C)C2)cc(-c2ccc[nH]c2=O)cc1C(C)(C)C` (centres unmarked) [I-77], for which the IC50 was found to be 1830 nM.

Consider `COc1c(C(=O)Nc2cccc(CO)c2C)cc(-c2ccc[nH]c2=O)cc1C(C)(C)C` [I-78], for which the IC50 worked out at 1130 nM.

`COc1c(C(=O)Nc2ccccc2C)cc(-c2ccc[nH]c2=O)cc1C(C)(C)C` [I-79] showed an IC50 of 1170 nM.

In turn, `COc1c(C(=O)NC2CCN(C)CC2)cc(-c2ccc[nH]c2=O)cc1C(C)(C)C` [I-91] showed an IC50 of 1480 nM.

As for `COc1c(C(=O)NC2CCC(N(C)C)CC2)cc(-c2ccc[nH]c2=O)cc1C(C)(C)C` (centres unmarked) [I-92], the IC50 was determined as 1690 nM.

In the case of `COc1c(C(=O)NC2CCCCC2CO)cc(-c2ccc[nH]c2=O)cc1C(C)(C)C` (centres unmarked) [I-93], the IC50 came to 1900 nM.

On to `COc1c(CCc2ccc(NS(C)(=O)=O)cc2)cc(-c2cc(Cl)c[nH]c2=O)cc1C(C)(C)C` [I-95, N-(4-{2-[3-tert-Butyl-5-(5-chloro-2-oxo-1,2-dihydro-pyridin-3-yl)-2-methoxy-phenyl]-ethyl}-phenyl)-methanesulfonamide], for which the IC50 came to 17 nM.

In turn, `COc1c(C(=O)Nc2cccc(CO)c2)cc(-c2ccc[nH]c2=O)cc1C(C)(C)C` [I-97] displayed a concentration for half-maximal inhibition (IC50) of 384 nM.

`COc1c(N(C)C(=O)c2ccc(NS(C)(=O)=O)cc2)cc(-c2ccc[nH]c2=O)cc1C(C)(C)C` [I-104, N-[3-tert-Butyl-2-methoxy-5-(2-oxo-1,2-dihydro-pyridin-3-yl)-phenyl]-4-methanesulfonylamino-N-methyl-benzamide] registered an IC50 of 107 nM.

Turning to `CCc1ccc(-c2cc(C(C)(C)C)ccc2OC)c(=O)[nH]1` [I-105, 3-(5-tert-Butyl-2-methoxy-phenyl)-6-ethyl-1H-pyridin-2-one], half-maximal inhibition (IC50) required 6350 nM.

The compound `COc1c(C(=O)Nc2ccc(OCC(N)=O)cc2)cc(-c2ccc[nH]c2=O)cc1C(C)(C)C` [I-113, 3-tert-Butyl-N-(4-carbamoylmethoxy-phenyl)-2-methoxy-5-(2-oxo-1,2-dihydro-pyridin-3-yl)-benzamide] gave an IC50 of 133 nM.

Compound `C/C(=C\c1cc(C(C)(C)C)cc(-c2ccc[nH]c2=O)c1O)c1ccc(NS(C)(=O)=O)cc1` [I-143] showed an IC50 of 308 nM.

Turning to `COc1c(/C=C(/CO)c2ccc(NS(C)(=O)=O)cc2)cc(-c2ccc[nH]c2=O)cc1C(C)(C)C` [I-145], the 50% inhibitory concentration (IC50) came to 53 nM.

The compound `CC(C)(C)c1cc(/C=C/c2ccc(NS(C)(=O)=O)c(F)c2)cc(-c2ccc[nH]c2=O)c1` [I-146, N-(4-{(E)-2-[3-tert-Butyl-5-(2-oxo-1,2-dihydro-pyridin-3-yl)-phenyl]-vinyl}-2-fluoro-phenyl)-methanesulfonamide] came in with an IC50 of 3 nM.

As for `COc1c(/C=C(\CO)c2ccc(NS(C)(=O)=O)cc2)cc(-c2ccc[nH]c2=O)cc1C(C)(C)C` [I-149, N-(4-{(Z)-2-[3-tert-Butyl-2-methoxy-5-(2-oxo-1,2-dihydro-pyridin-3-yl)-phenyl]-1-hydroxymethyl-vinyl}-phenyl)-methanesulfonamide], the IC50 stood at 26 nM.

`COc1c(/C=C/c2ccc(NS(=O)(=O)CC(F)(F)F)cc2)cc(-c2cc(F)c[nH]c2=O)cc1C(C)(C)C` [I-152] came in with an IC50 of 16 nM.

`COc1c(/C=C/c2ccc(NS(=O)(=O)CC3CC3)cc2)cc(-c2cc(F)c[nH]c2=O)cc1C(C)(C)C` [I-153]: the IC50 stood at 8 nM.

As to `COc1c(/C=C/c2ccc(NS(=O)(=O)C3CC3)cc2)cc(-c2cc(F)c[nH]c2=O)cc1C(C)(C)C` [I-155, Cyclopropanesulfonic acid (4-{(E)-2-[3-tert-butyl-5-(5-fluoro-2-oxo-1,2-dihydro-pyridin-3-yl)-2-methoxy-phenyl]-vinyl}-phenyl)-amide], 3 nM corresponded to half-maximal inhibition (IC50).

With `COCCCS(=O)(=O)Nc1ccc(/C=C/c2cc(-c3cc(F)c[nH]c3=O)cc(C(C)(C)C)c2OC)cc1` [I-156], half-maximal inhibition (IC50) required 6 nM.

In turn, `COC(=O)c1cc(NS(C)(=O)=O)ccc1/C=C/c1cc(-c2ccc[nH]c2=O)cc(C(C)(C)C)c1` [I-158] returned an IC50 of 19 nM.

Regarding `CC(C)(C)c1cc(/C=C/c2ccc(NS(C)(=O)=O)cc2C(=O)O)cc(-c2ccc[nH]c2=O)c1` [I-159, 2-{(E)-2-[3-tert-Butyl-5-(2-oxo-1,2-dihydro-pyridin-3-yl)-phenyl]-vinyl}-5-methanesulfonylamino-benzoic acid], the half-maximal inhibitory concentration (IC50) is 8 nM.

`COc1c(/C=C/c2ccc(NS(C)(=O)=O)cc2CNC(C)=O)cc(-c2ccc[nH]c2=O)cc1C(C)(C)C` [I-160, N-(2-{(E)-2-[3-tert-Butyl-2-methoxy-5-(2-oxo-1,2-dihydro-pyridin-3-yl)-phenyl]-vinyl}-5-methanesulfonylamino-benzyl)-acetamide] had an IC50 of 4 nM.

As for `CC(C)(C)c1cc(/C=C/c2ccc(NS(C)(=O)=O)cn2)c(O)c(-c2ccc[nH]c2=O)c1` [I-167, N-(6-{(E)-2-[5-tert-Butyl-2-hydroxy-3-(2-oxo-1,2-dihydro-pyridin-3-yl)-phenyl]-vinyl}-pyridin-3-yl)-methanesulfonamide], inhibition was half-maximal at 21 nM (IC50).

Regarding `COc1c(/C=C/c2ccc(NC(C)=O)cn2)cc(-c2cc(F)c[nH]c2=O)cc1C(C)(C)C` [I-169, N-(6-{(E)-2-[3-tert-Butyl-5-(5-fluoro-2-oxo-1,2-dihydro-pyridin-3-yl)-2-methoxy-phenyl]-vinyl}-pyridin-3-yl)-acetamide], the IC50 amounted to 29 nM.

Turning to `COc1c(/C=C/c2ccc(NS(C)(=O)=O)cn2)cc(-c2cc(F)c[nH]c2=O)cc1C(C)(C)C` [I-170, N-(6-{(E)-2-[3-tert-Butyl-5-(5-fluoro-2-oxo-1,2-dihydro-pyridin-3-yl)-2-methoxy-phenyl]-vinyl}-pyridin-3-yl)-methanesulfonamide], inhibition was half-maximal at 6 nM (IC50).

`COc1c(/C=C/c2ccc(N)nc2)cc(-c2ccc[nH]c2=O)cc1C(C)(C)C` [I-171] yielded an IC50 of 4 nM.

In the case of `COc1c(/C=C/c2ccc(NS(C)(=O)=O)nc2)cc(-c2ccc[nH]c2=O)cc1C(C)(C)C` [I-172], the IC50 worked out at 3 nM.

On to `COc1c(/C=C/c2ccc(NS(C)(=O)=O)nc2)cc(-c2cc(F)c[nH]c2=O)cc1C(C)(C)C` [I-175], for which the 50% inhibitory concentration (IC50) was 6 nM.

In turn, `COc1c(CC(C#N)c2ccc(NS(C)(=O)=O)cc2)cc(-c2ccc[nH]c2=O)cc1C(C)(C)C` (centres unmarked) [I-177, N-(4-{2-[3-tert-Butyl-2-methoxy-5-(2-oxo-1,2-dihydro-pyridin-3-yl)-phenyl]-1-cyano-ethyl}-phenyl)-methanesulfonamide] gave an IC50 of 8 nM.

In turn, `COc1c(CC(C(N)=O)c2ccc(NS(C)(=O)=O)cc2)cc(-c2ccc[nH]c2=O)cc1C(C)(C)C` (centres unmarked) [I-178] yielded an IC50 of 15 nM.

Consider `COc1c(CC(C(=O)O)c2ccc(NS(C)(=O)=O)cc2)cc(-c2ccc[nH]c2=O)cc1C(C)(C)C` (centres unmarked) [I-179, 3-[3-tert-Butyl-2-methoxy-5-(2-oxo-1,2-dihydro-pyridin-3-yl)-phenyl]-2-(4-methanesulfonylamino-phenyl)-propionic acid], for which the IC50 was determined as 8 nM.

In the case of `COc1c(/C=C/c2ccc(NS(C)(=O)=O)cc2)cc(-c2ccc[nH]c2=O)cc1C(C)(O)C(F)(F)F` (centres unmarked) [I-180], the IC50 stood at 5 nM.

The same assay, now with this note: read-out: IC50 HCV NS5B RNA Polymerase Assay; values without asterisk; 20 nM NS5B570n-Con1 enzyme, 20 nM cIRES RNA template.
Turning to `COc1c(/C=C/c2ccc(NS(=O)(=O)C(F)(F)F)cc2)cc(-c2cc(F)c[nH]c2=O)cc1C(C)(C)C` [I-154], the half-maximal inhibitory concentration (IC50) came to 10 nM.

Take `COc1c(/C=C/c2ccc(N)nc2)cc(-c2cc(F)c[nH]c2=O)cc1C(C)(C)C` [I-174]: the IC50 came to 12 nM.

Consider `COc1c(CC(CO)c2ccc(NS(C)(=O)=O)cc2)cc(-c2ccc[nH]c2=O)cc1C(C)(C)C` (centres unmarked) [I-176], for which the IC50 stood at 6 nM.

The same assay, now with this note: values without asterisk; 20 nM NS5B570n-Con1 enzyme, 20 nM cIRES RNA template; read-out: IC50 HCV NS5B RNA Polymerase Assay.
Regarding `COc1cc(C(=O)O)ccc1[N+](=O)[O-]` [I-130], the IC50 turned out to be 3 nM.

`O=C(O)c1ccc([N+](=O)[O-])c(Cl)c1` [I-131]: the IC50 amounted to 3 nM.

Consider `O=C(O)c1ccc([N+](=O)[O-])cn1` [I-136], for which the IC50 worked out at 5 nM.
